One compound from US20050222258A1, “Pharmaceuticals comprising shikonins as active constituent” (priority 2003, published 2005) can be followed below.

One assay concerns HBsAg. The assay can be described thus: microbe, parasite or virus in culture. The note with it: Hepatitis B virus, read-out: average inhibitory rate for HBsAg.
In another assay the test system is HBeAg. Briefly: microbe, parasite or virus in culture. The conditions noted are these: Hepatitis B virus, read-out: average inhibitory rate for HBeAg.

As to `CC(C)=CCC(OC(=O)C=C(C)C)C1=CC(=O)c2c(O)ccc(O)c2C1=O` (stereo not drawn) [β,β-dimethylacrylshikonin], the inhibition at 30 µg/mL amounted to 96.3% with HBsAg and 91.6% with HBeAg.
